Laboratory results reported in ChEMBL document CHEMBL1201862, “PubChem BioAssay data set” (2004).
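Growth conditions: 96-well plates. Treatment: test compound, 48 hours, 5 concentrations. Analysis: linear interpolation between bracketing concentrations; unreached endpoints set to highest concentration. GI50 = concentration required for 50% inhibition of growth.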 The source made the active and inactive calls. Cut-off read from the data, not from the text of the source: active = GI50 up to about 1.1 µM and inactive = higher.

Experiments:
Test in all cases: growth of human tumour cells (NCI), 48 h
[1] = system: SK-MEL-28
[2] = system: HCT-15
[3] = system: OVCAR-4
[4] = system: BT-549
[5] = system: K562
[6] = system: SK-MEL-5
[7] = system: A549
[8] = system: KM12
[9] = system: SN12C
[10] = system: SW-620
[11] = system: SF-539
[12] = system: SK-OV-3
[13] = system: CCRF-CEM
[14] = system: Malme-3M
[15] = system: ACHN
[16] = system: COLO 205
[17] = system: OVCAR-5
[18] = system: NCI-H460
[19] = system: XF498
[20] = system: LXFL 529

Row | SMILES | GI50 [1] | GI50 [2] | GI50 [3] | GI50 [4] | GI50 [5] | GI50 [6] | GI50 [7] | GI50 [8] | GI50 [9] | GI50 [10] | GI50 [11] | GI50 [12] | GI50 [13] | GI50 [14] | GI50 [15] | GI50 [16] | GI50 [17] | GI50 [18] | GI50 [19] | GI50 [20]
1 | O=C(O)C1(Cc2ccccc2)Cc2ccccc2C1 | > 100 µM (inactive) | > 100 µM | > 100 µM (inactive) | > 100 µM (inactive) | > 100 µM (inactive) | > 100 µM (inactive) | > 100 µM (inactive) | > 100 µM (inactive) | > 100 µM (inactive) | > 100 µM (inactive) | > 100 µM (inactive) | > 100 µM (inactive) | > 100 µM (inactive) | > 100 µM (inactive) | > 100 µM (inactive) | > 100 µM (inactive) | > 100 µM (inactive) | > 100 µM (inactive) |  | 
2 | CC12CCC3=C(CSC4=C3CSc3ccccc34)C1=CCCC2=O (stereo not drawn) | > 100 µM (inactive) | 29.8 µM | 14.8 µM (inactive) |  | 40.8 µM (inactive) | 17.4 µM (inactive) | 36.5 µM (inactive) | 54.2 µM (inactive) | > 100 µM (inactive) | > 100 µM (inactive) | 75.7 µM (inactive) |  | 69.8 µM (inactive) | 31 µM (inactive) | 69.2 µM (inactive) | 20.3 µM (inactive) | 37.8 µM (inactive) | 45.2 µM (inactive) | 19.7 µM (inactive) | 37.1 µM (inactive)
3 | CCCO/N=[N+](\[O-])N(CC)CC | > 100 µM (inactive) | > 100 µM |  |  | > 100 µM (inactive) | > 100 µM (inactive) | > 100 µM (inactive) | > 100 µM (inactive) | > 100 µM (inactive) | > 100 µM (inactive) | > 100 µM (inactive) | > 100 µM (inactive) | > 100 µM (inactive) |  | > 100 µM (inactive) |  | > 100 µM (inactive) | > 100 µM (inactive) | > 100 µM (inactive) | > 100 µM (inactive)
4 | Cc1c(/N=C/C=C/c2ccccc2)c(=O)n(-c2ccccc2)n1C | 14.6 µM (inactive) | 47 µM | 13 µM (inactive) | 22.8 µM (inactive) |  | 15.3 µM (inactive) | > 100 µM (inactive) | 21.3 µM (inactive) | 16.1 µM (inactive) | 23 µM (inactive) | 23 µM (inactive) | > 100 µM (inactive) | 6.87 µM (inactive) | 25.4 µM (inactive) | 29.8 µM (inactive) | > 100 µM (inactive) | 58.9 µM (inactive) | 87.5 µM (inactive) |  | 
5 | CN(C)CCCNC(=O)c1cccc2ccccc12 | > 100 µM (inactive) | > 100 µM | > 100 µM (inactive) |  | > 100 µM (inactive) | > 100 µM (inactive) | > 100 µM (inactive) | > 100 µM (inactive) | > 100 µM (inactive) | > 100 µM (inactive) | > 100 µM (inactive) | > 100 µM (inactive) | > 100 µM (inactive) | > 100 µM (inactive) | > 100 µM (inactive) |  |  | > 100 µM (inactive) | > 100 µM (inactive) | > 100 µM (inactive)
6 | C[N+](C)(CCCCCC[N+](C)(C)CCCN1C(=O)c2cccc3cccc(c23)C1=O)CCCN1C(=O)c2cccc3cccc(c23)C1=O | > 100 µM (inactive) | > 100 µM | > 100 µM (inactive) | > 100 µM (inactive) | > 100 µM (inactive) | > 100 µM (inactive) | > 100 µM (inactive) | > 100 µM (inactive) | > 100 µM (inactive) | > 100 µM (inactive) | > 100 µM (inactive) | > 100 µM (inactive) | > 100 µM (inactive) | > 100 µM (inactive) | > 100 µM (inactive) | > 100 µM (inactive) | > 100 µM (inactive) | > 100 µM (inactive) |  | 
7 | C[C@H]1SC(c2ccc(Cl)cc2Cl)N(NC(=O)c2ccncc2)C1=O (stereo partly drawn) | 31.3 µM (inactive) | 42 µM |  | 36.6 µM (inactive) | 23.5 µM (inactive) | 19.2 µM (inactive) |  | 36.7 µM (inactive) | 45.9 µM (inactive) |  |  | 65.2 µM (inactive) | 30.1 µM (inactive) | 64.1 µM (inactive) | 27.5 µM (inactive) | 37.7 µM (inactive) | 28.8 µM (inactive) | 45.5 µM (inactive) |  | 
